Legend:
Format in all cases: cell-based
[1] = biological target: T1, α1G T-type calcium channels (Homo sapiens, UniProt O43497); test: T-type calcium channel activity using the FDSS6000 (HTS, Fluo-3/AM, KCl-induced intracellular calcium change); conditions: percent inhibition at 10 μM, HEK293 cells stably expressing α1G T-type calcium channels and Kir2.1, KCl 75 mM activation; for inhibition at 10 µM: read-out: FDSS (%, 10 μM)
T1 construct: host or cells: HEK293
Procedure: (§1) The novel compounds of the present invention presented as the formula 1 were tested for their antagonistic activities against T-type calcium channels using the methods described below. More specifically, the synthesized compounds were screened as follows: First, as a primary screening, the compounds having 40% or higher of antagonistic activities against T-type calcium channels were selected using the FDSS6000, a high throughput screening (HTS) device. Then, as a secondary screening, the IC50 (effective inhibitory concentration) values were obtained using the electrophysiological methods.
1) Methods for the Measurements of T-Type Calcium Channel Activity Using the FDSS6000
12 to 24 hours prior to the FDSS-based HTS assay, HEK293 cells stably expressing both α1G T-type calcium channels and Kir2.1 channels (α1G cell line: KCTC 10519BP, KRIBB (Korea Research Institute of Bioscience and Biotechnology) (GENE BANK) were seeded onto the 96-well plate coated with poly-L-lysine (0.05 mg/mL) at a density of 4×10^4 cells/well using a cell distributor (Titertek, USA). On the following day, the cells attached onto the 96-well plate were washed three times with a HEPES-buffered solution (150 mM NaCl, 5 mM KCl, 1 mM MgCl2, 2 mM CaCl2, 10 mM HEPES, 10 mM glucose, and pH 7.4) using an automatic 96-well plate washer (BioTek, USA), and then labeled with a fluorescent calcium indicator dye, Fluo-3/AM (5 μM) and 0.001% Pluronic F-127 in a HEPES-buffered solution at room temperature for 1 hour and then washed again with a HEPES-buffered solution twice. 10 minutes prior to the FDSS6000 measurements, the cells was washed with a HEPES-buffered solution containing 10 mM CaCl2 once and the final volume was adjusted.
In addition to the 96-well plates with cells, the two drug plates were prepared: one containing KCl (final concentration of 75 mM) for the activation of T-type calcium channels, and the other containing testing compounds (blocking agents of T-type calcium channels). Since most cell-based HTS devices are provided with a liquid application system for drug injection but not with a liquid absorption system, the KCl solution and the blocking agents for screening were prepared at concentrations five times higher than the final concentrations in the 10 mM CaCl2 HEPES-buffered solution, and then diluted in the cell plate, and the activities were measured. The specific method of the FDSS6000 measurements is as follows: For the FDSS6000 measurements, after the 20-sec baseline recordings, cells were preincubated with drugs for 75 seconds and the change in intracellular calcium concentration induced by KCl was measured. The percent inhibition by a test compound was calculated as integrated values of 340/380 fluorescent ratio of untreated and drug-treated cells. The control drug was 10 μM of Mibefradil®.
In details, cells were selectively exposed to 340 nm and 380 nm light excited by 4 xenon lamps installed in FDSS6000 using a computer-controlled filter wheel. The emitter fluorescence light through a 515 nm long-pass filter was passed by a freezing digital CCD camera mounted on the device. Data were collected every 1.23 seconds, and an average value of 340/380 fluorescent ratio for each well was obtained using a digital fluorescent analyzer. Data acquisition and analysis were performed using a program provided by Hamamatsu Photonics.

[2] = biological target: T1, α1G T-type calcium channels; test: T-type calcium channel activity using electrophysiological whole-cell patch-clamp technique; conditions: HEK293 cells expressing α1G T-type calcium channels
Procedure: as §1
2) Methods for the Measurements of T-Type Calcium Channel Activity Using an Electrophysiological Whole-Cell Patch-Clamp Technique
HEK293 cells stably expressing T-type calcium channels were cultured in DMEM (Dulbecco's modified Eagle's medium) containing 10% (v/v) fetal bovine serum and 1% penicillin/streptomycin (v/v) in humidified 5% CO2 at 36.5° C. Cells expressing α1GT-type calcium channels were selected using G-418 (0.5 mg/mL) in the culture medium. The culture medium was replaced with a fresh one every 3-4 days, and cells were subcultured every week.
Cells were seeded onto the coverglass coated with poly-L-lysine (0.5 mg/mL) for the measurements of T-type calcium channel activity 2-7 days prior to the recordings. Whole-cell recordings of T-type calcium channel currents were performed using an EPC-9 patch clamp amplifier (HEKA, Germany). Whole-cell currents were recorded using micropipettes with resistance of 3-4 MΩ with the pipette (intracellular) solution containing (in mM): 130 KCl, 11 EGTA, 5 Mg-ATP, and 10 HEPES, pH to 7.4 and with the bath (extracellular) solution containing (in mM): 140 NaCl, 2 CaCl2, and 10 HEPES, pH to 7.4. The inward currents of T-type calcium channels were evoked by the test pulses of −30 mV for 50 ms at a holding potential of −100 mV every 10 seconds.
Each compound was dissolved in dimethylsulfoxide (DMSO) as 10 mM stock solutions and diluted in the bath solution to 10 μM (containing 0.1% DMSO). […] More specifically, each compound was perfused to the bath for about 30-60 seconds, and the inhibition of the inward peak currents by a test compound was calculated as a percent inhibition from which the IC50 values were determined.

[3] = biological target: T1, α1G T-type calcium channels; test: as above; conditions: percent inhibition of inward peak currents, HEK293 cells expressing α1G, head prints 100 μM

T1 sequence (O43497 whole entry): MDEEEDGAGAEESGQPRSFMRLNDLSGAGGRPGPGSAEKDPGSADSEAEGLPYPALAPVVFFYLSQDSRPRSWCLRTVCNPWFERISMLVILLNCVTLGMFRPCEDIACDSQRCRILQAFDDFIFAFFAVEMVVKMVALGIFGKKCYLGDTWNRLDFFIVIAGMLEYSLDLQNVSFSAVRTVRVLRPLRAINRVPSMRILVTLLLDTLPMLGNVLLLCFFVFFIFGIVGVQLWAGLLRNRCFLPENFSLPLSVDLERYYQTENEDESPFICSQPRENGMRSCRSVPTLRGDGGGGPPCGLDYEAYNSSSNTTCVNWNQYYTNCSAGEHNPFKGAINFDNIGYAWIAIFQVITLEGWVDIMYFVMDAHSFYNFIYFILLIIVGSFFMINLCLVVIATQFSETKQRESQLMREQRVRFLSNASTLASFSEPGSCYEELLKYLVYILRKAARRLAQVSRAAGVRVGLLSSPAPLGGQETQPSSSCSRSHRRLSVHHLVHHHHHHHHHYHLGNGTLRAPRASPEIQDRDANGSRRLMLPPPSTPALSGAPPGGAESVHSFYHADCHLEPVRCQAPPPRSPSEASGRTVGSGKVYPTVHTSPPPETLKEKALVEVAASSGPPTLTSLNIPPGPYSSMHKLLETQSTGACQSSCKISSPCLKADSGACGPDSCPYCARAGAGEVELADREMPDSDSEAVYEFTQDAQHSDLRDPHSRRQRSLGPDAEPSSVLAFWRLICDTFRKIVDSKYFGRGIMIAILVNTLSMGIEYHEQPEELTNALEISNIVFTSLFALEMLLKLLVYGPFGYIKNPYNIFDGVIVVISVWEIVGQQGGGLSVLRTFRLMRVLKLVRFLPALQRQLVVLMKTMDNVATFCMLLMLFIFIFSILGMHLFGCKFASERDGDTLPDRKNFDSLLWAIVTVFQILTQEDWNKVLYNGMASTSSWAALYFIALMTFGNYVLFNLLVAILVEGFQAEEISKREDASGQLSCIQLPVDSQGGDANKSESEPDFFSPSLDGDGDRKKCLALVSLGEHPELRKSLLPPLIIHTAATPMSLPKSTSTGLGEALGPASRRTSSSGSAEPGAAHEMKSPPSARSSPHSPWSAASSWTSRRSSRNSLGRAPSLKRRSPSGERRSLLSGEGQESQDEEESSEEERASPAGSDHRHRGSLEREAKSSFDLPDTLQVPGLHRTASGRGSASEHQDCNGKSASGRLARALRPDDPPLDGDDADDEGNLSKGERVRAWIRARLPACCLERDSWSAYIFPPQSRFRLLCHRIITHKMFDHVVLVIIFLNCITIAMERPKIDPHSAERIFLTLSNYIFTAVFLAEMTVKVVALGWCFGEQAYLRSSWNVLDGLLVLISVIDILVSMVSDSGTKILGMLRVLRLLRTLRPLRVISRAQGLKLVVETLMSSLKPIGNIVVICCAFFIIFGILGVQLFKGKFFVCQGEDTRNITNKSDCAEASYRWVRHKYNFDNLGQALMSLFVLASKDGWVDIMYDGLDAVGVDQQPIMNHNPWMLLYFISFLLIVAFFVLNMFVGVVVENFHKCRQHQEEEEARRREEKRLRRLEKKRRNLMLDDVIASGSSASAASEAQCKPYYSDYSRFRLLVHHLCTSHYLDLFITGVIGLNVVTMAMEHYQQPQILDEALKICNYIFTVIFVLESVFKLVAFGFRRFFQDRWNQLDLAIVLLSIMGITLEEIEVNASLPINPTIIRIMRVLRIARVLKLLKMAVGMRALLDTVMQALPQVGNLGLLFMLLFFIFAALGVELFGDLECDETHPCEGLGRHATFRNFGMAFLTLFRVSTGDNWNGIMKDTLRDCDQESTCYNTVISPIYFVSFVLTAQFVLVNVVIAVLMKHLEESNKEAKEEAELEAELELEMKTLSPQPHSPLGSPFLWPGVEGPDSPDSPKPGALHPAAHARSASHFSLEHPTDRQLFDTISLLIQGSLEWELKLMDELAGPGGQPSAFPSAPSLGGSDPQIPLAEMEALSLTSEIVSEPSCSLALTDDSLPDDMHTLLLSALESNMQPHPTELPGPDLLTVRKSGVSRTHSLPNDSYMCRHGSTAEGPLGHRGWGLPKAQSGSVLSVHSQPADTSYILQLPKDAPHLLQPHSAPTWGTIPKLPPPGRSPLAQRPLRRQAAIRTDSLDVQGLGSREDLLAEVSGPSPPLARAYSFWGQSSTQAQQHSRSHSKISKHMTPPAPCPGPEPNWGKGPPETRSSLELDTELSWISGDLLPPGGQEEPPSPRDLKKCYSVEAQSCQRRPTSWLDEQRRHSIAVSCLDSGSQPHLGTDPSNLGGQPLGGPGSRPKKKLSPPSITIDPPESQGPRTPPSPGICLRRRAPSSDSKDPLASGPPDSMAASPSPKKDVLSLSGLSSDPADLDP

FDSS (%, 10 μM) [1]	IC50 [2]	HEK293 (%, 100 μM) [3]	inhibition at 10 µM [1]	inhibition at 100 µM [3]	Compound
47.90%	5.46 ± 0.57 µM	64.7 ± 2.2%	–	–	1-N-[4-(4-chlorophenyl)(phenyl)methylpiperazin-1-yl]carbonylethyl-4-methylimidazole [Compound No. 45]
58.64%	2.11 ± 0.11 µM	89.1 ± 1.3%	–	–	1-N-{2-[4-(4-chlorophenyl) (phenyl)methylpiperazin-1-yl]ethyl}carbamoylethyl-2-phenylimidazole [Compound No. 63]
60.48%	1.39 ± 0.07 µM	95.8 ± 0.7%	–	–	1-N-{2-[4-(4-chlorophenyl) (phenyl)methylpiperazin-1-yl]ethyl}carbamoylethyl-4-phenylimidazole [Compound No. 64]
–	4.89 ± 0.44 µM	–	55.5%	64.7 ± 2.2%	Cc1cccc(N2CCN(C(=O)CCn3cnc(-c4ccccc4)c3)CC2)c1C [Compound No. 3, 1-N-[4-(2,3-dimethylphenyl)piperazin-1-yl]carbonylethyl-4-phenylimidazole]
–	3 ± 0.26 µM	–	64.7%	86.5 ± 1.8%	O=C(CCn1cnc(-c2ccccc2)c1)N1CCN(Cc2ccc(Cl)cc2)CC1 [Compound No. 5, 1-N-[4-(4-chlorobenzyl)piperazin-1-yl]carbonylethyl-4-phenylimidazole]
–	3.67 ± 0.23 µM	–	54.7%	71.1 ± 3.3%	O=C(CCn1ccnc1-c1ccccc1)N1CCN(C(c2ccccc2)c2ccccc2)CC1 [Compound No. 13, 1-N-(4-diphenylmethylpiperazin-1-yl)carbonylethyl-2-phenylimidazole]
–	9.36 ± 0.65 µM	–	39.3%	50 ± 0.6%	O=C(CCn1ccnc1-c1ccccc1)N1CCN(Cc2ccc(Cl)c(Cl)c2)CC1 [Compound No. 18, 1-N-[4-(3,4-dichlorobenzyl)piperazin-1-yl]carbonylethyl-2-phenylimidazole]
–	22.3 ± 1.46 µM	–	45.2%	22.9 ± 1.4%	O=C(CCn1cnc(-c2ccccc2)c1)N1CCN(c2ccccc2F)CC1 [Compound No. 20, 1-N-[4-(2-fluorophenyl)piperazin-1-yl]carbonylethyl-4-phenylimidazole]
–	4.35 ± 0.14 µM	–	63.7%	74.3 ± 1.3%	O=C(CCn1cnc(-c2ccccc2)c1)N1CCN(c2cccc(Cl)c2)CC1 [Compound No. 25, 1-N-[4-(3-chlorophenyl)piperazin-1-yl]carbonylethyl-4-phenylimidazole]
–	8.66 ± 0.12 µM	–	49.6%	51.9 ± 0.1%	O=C(CCn1cnc(-c2ccccc2)c1)NCCN1CCN(C(c2ccccc2)c2ccccc2)CC1 [Compound No. 55, 1-N-[2-(4-diphenylmethylpiperazin-1-yl)ethyl]carbamoylethyl-4-phenylimidazole]
–	14.5 ± 0.68 µM	–	49.8%	37.6 ± 0.5%	O=C(CCn1ccnc1-c1ccccc1)NCCN1CCN(c2ccc(F)cc2)CC1 [Compound No. 74, 1-N-{2-[4-(4-fluorophenyl)piperazin-1-yl]ethyl}carbamoylethyl-2-phenylimidazole]

From patent US8492384B2 (Korea Institute of Science and Technology, priority 2008, dated 2013)
